Test results from US20250376498A1, “FUSION PROTEINS COMPRISING AN IMPROVED GLP-1 RECEPTOR AGONIST AND USES THEREOF” (Guangzhou Innogen Pharmaceutical Group Co., Ltd., priority 2022, published 2025).
Where two headings read alike, the source gives them in different places.

Columns and labels:
[1] = cited from earlier work
[2] = Determination of oxidation levels by LC-MS/MS; type: physicochemical
Procedure: Following the protein oxidation measurement method described in Example 2 or by referring to Bettinger et al., the oxidation levels were determined. It was observed that the GLP-1 fusion protein YN-011 of the present invention was not oxidized at position W31, whereas the oxidation level of […] at the same position exceeded 5%. The oxidation occurred at the location indicated by the rectangular box in the structure of W31.

db/db mice = assay: Multiple subcutaneous injections in db/db mice (type 2 diabetes model); type: in vivo; conditions: db/db mice
Procedure: The impact of multiple subcutaneous injections of YN-011 on reducing blood glucose levels was evaluated in db/db mice (Jackson Laboratories, 000642). The mice were kept under normal lighting conditions (12 hours light/12 hours dark) and at room temperature, with free access to food (normal rodent chow) and water. Db/db mice lack leptin receptors and spontaneously develop obesity, hyperglycemia, and pancreatic B-cell atrophy by 4 weeks of age.
Sixty affected db/db mice (33-45g) were divided into six groups of 10 mice each (5 males and 5 females) and administered 0 (PBS buffer control), 0.15, 0.3, 0.6, or 1.2 mg/kg of YN-011, or 0.3 mg/kg of Degludec via subcutaneous injection. Another group of wild-type mice (17-22g) with the same genetic background served as the normal control. The administration frequency was once every 3 days (Q3D), with a total of 9 doses administered over a period of 26 days. […] The duration of the hypoglycemic effect ranged from 34 to 72 hours within the dose range of 0.15-1.2 mg/kg.

[3] = marketed drugs, refs [22], [24]; cited from earlier work
[4] = cited from earlier work; remark: listed apart in the source
[5] = dulaglutide 1.5 mg, 26 weeks (Shi et al.)
[6] = dulaglutide 1.5 mg in combination with metformin, 40 weeks (Dungan et al.)
[7] = semaglutide 1 mg, 30 weeks (Sorli et al.)

In the case of `CCCCCCCCCCCCCCCC(=O)N[C@@H](CCC(=O)NCCCC[C@H](NC(=O)[C@H](C)NC(=O)[C@H](C)NC(=O)[C@H](CCC(N)=O)NC(=O)CNC(=O)[C@H](CCC(=O)O)NC(=O)[C@H](CC(C)C)NC(=O)[C@H](Cc1ccc(O)cc1)NC(=O)[C@H](CO)NC(=O)[C@H](CO)NC(=O)[C@@H](NC(=O)[C@H](CC(=O)O)NC(=O)[C@H](CO)NC(=O)[C@@H](NC(=O)[C@H](Cc1ccccc1)NC(=O)[C@@H](NC(=O)CNC(=O)[C@H](CCC(=O)O)NC(=O)[C@H](C)NC(=O)[C@@H](N)Cc1cnc[nH]1)[C@@H](C)O)[C@@H](C)O)C(C)C)C(=O)N[C@@H](CCC(=O)O)C(=O)N[C@@H](Cc1ccccc1)C(=O)N[C@H](C(=O)N[C@@H](C)C(=O)N[C@@H](Cc1c[nH]c2ccccc12)C(=O)N[C@@H](CC(C)C)C(=O)N[C@H](C(=O)N[C@@H](CCCNC(=N)N)C(=O)NCC(=O)N[C@@H](CCCNC(=N)N)C(=O)NCC(=O)O)C(C)C)[C@@H](C)CC)C(=O)O` [liraglutide], the incidence of nausea ([1]; liraglutide 1 mg, 24 weeks (Shuai et al.)) is listed as 5.6% and the incidence of nausea ([1]; liraglutide 3 mg, 24 weeks (Shuai et al.)) is listed as 10%.

For Degludec [reference compound], the “oxidation level at position M253” value [2] was “exceeding 5%”, the “oxidation level at position W31” value [2] was “exceeded 5%” and the “average rate of fasting blood glucose reduction” value (db/db mice; 0.3 mg/kg Q3D sc, average over measurement time points) was 63.6%. The “fasting blood glucose levels versus model control group” value (db/db mice; Q3D sc, YN-011 all dose groups (P<0.001), Degludec 0.3 mg/kg) was “significant decrease”.

In the case of “Dulaglutide: DPP-IV protected GLP-1 analog fused with an IgG4/Fc fragment”, the “half-life / elimination half-life” value [3] is given as 113 to 132 h, the incidence of hypoglycemia ([1]; dulaglutide 0.75 mg, 26 weeks (Shi et al.)) is given as 4.1% and the incidence of hypoglycemia [1, 5] is given as 6.3%. The incidence of nausea [1, 5] was 9.5%, the “reduction in HbA1c levels” value [1, 5] was 1.46% and the incidence of hypoglycemia [4, 6] was 9%. For the same compound, the incidence of nausea [4, 6] was 20%, the “reduction in FPG levels” value [4, 6] was 1.93% and the “reduction in HbA1c levels” value [4, 6] was 1.42%.

For Semaglutide, the “half-life / elimination half-life” value [3] is given as 137 to 161 h, the incidence of nausea ([1]; semaglutide 0.5 mg, 30 weeks (Sorli et al.)) is given as 20% and the incidence of nausea [1, 7] is given as 24%. The “reduction in HbA1c levels” value [1, 7] was 1.55% and the incidence of nausea ([4]; semaglutide 1 mg in combination with metformin, 30 weeks (Ji et al.)) was 13.4%.
